Test [1] addresses T1, Androgen receptor (Rattus norvegicus) (UniProt P15207).
T1 sequence (whole entry): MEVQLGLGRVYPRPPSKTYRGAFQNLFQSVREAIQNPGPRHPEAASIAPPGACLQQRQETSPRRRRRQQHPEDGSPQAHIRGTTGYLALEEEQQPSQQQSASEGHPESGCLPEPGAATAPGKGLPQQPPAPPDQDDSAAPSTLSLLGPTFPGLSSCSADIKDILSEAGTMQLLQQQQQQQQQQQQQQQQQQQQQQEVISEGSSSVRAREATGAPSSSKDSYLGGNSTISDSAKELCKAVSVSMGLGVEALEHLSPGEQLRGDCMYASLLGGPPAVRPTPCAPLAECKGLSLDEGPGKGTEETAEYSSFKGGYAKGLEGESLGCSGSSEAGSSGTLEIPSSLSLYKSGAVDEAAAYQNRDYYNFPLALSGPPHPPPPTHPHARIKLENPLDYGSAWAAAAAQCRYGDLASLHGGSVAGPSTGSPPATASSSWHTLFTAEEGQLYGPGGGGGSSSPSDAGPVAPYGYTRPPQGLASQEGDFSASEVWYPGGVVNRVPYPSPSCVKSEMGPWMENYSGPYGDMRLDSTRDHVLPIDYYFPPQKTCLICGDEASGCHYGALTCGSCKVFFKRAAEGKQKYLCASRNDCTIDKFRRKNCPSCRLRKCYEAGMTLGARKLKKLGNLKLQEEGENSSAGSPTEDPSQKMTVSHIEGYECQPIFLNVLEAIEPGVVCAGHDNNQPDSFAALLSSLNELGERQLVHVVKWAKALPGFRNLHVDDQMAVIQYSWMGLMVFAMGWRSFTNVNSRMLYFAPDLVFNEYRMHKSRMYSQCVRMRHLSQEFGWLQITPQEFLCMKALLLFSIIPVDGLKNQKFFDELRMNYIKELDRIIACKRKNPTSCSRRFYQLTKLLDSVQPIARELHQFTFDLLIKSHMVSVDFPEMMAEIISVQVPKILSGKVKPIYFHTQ
Briefly: Effective dose required to inhibit testosterone propionate-stimulated prostate weight gain by 50% […]. The test is classed as tissue-based. The note with it: Prostate gland.

Test [2] addresses T1, Androgen receptor (Rattus norvegicus). Particulars: Prostate gland; filed as agonist.
The next test is filed under the species Rattus norvegicus. Kind of test: Effective dose required for the compound to inhibit testosterone propionate-stimulated prostate weight gain by 50% […]. Format: functional. The note with it: Prostate gland.

In the case of `C#C[C@]1(O)CCC2C3CC[C@H]4Cc5oc(C(=O)CC)cc5C[C@]4(C)C3CC[C@@]21C` (stereo partly specified), the ED50 in test [1] was 30 mg/kg. On the same count and under the same terms, as for `CC1(C(=O)c2cc3c(o2)C[C@@H]2CCC4C5CC[C@H](O)[C@@]5(C)CCC4[C@@]2(C)C3)CC1` (stereo partly specified), the figure is more than 100 mg/kg. Turning to `CC(=O)c1cc2c(o1)C[C@@H]1CCC3C(CC[C@@]4(C)C3CC[C@@H]4O)[C@H]1C2` (stereo partly specified), the ED50 result in test [2] was “Agonist”. Regarding `C#C[C@]1(O)CCC2C3CC[C@H]4Cc5oc(C(C)=O)cc5C[C@@H]4C3CC[C@@]21C` (stereo partly specified), in test [1], the ED50 is 100 mg/kg. The compound `COc1ccc(C(=O)c2cc3c(o2)C[C@@H]2CCC4C5CC[C@H](O)[C@@]5(C)CCC4[C@@]2(C)C3)cc1` (stereo partly specified) showed an ED50 in the test listed under Rattus norvegicus of more than 100 mg/kg.

As for `C#C[C@]1(O)CCC2C3CC[C@H]4Cc5oc(C(=O)C(F)(F)F)cc5C[C@]4(C)C3CC[C@@]21C` (stereo partly specified), the ED50 entry in test [2] is “Agonist”. On to `C#C[C@]1(O)CCC2C3CC[C@H]4Cc5oc(C(C)=O)cc5C[C@]4(C)C3CC[C@@]21C` (stereo partly specified), for which the 50% effective dose (ED50) in test [1] is more than 100 mg/kg. As to `CC[C@]1(O)CCC2C3CC[C@H]4Cc5oc(C(C)=O)cc5C[C@]4(C)C3CC[C@@]21C` (stereo partly specified), the ED50 result in test [2] is “Agonist”. For the compound `C[C@]12CCC3C(CC[C@H]4Cc5oc(C(=O)c6ccccc6)cc5C[C@]34C)C1CC[C@@H]2O` (stereo partly specified), the ED50 in test [1] was more than 100 mg/kg. With `C#C[C@]1(O)CCC2C3CC[C@H]4Cc5oc(C(=O)O)cc5C[C@]4(C)C3CC[C@@]21C` (stereo partly specified), the ED50 in test [1] was more than 100 mg/kg. As for `C[C@]12CCC3C(CC[C@H]4Cc5oc(C(=O)C6CCC6)cc5C[C@]34C)C1CC[C@@H]2O` (stereo partly specified), the ED50 entry in test [2] was “Agonist”. `C[C@]12CCC3C(CC[C@H]4Cc5oc(C(=O)O)cc5C[C@]34C)C1CC[C@@H]2O` (stereo partly specified) gave a median effective dose (ED50) in test [1] of more than 100 mg/kg. Same read-out and setting: as for `COC(=O)c1cc2c(o1)C[C@@H]1CCC3C4CC[C@H](O)[C@@]4(C)CCC3[C@@]1(C)C2` (stereo partly specified), the figure is more than 100 mg/kg; as for `C#C[C@]1(O)CCC2C3CC[C@H]4Cc5oc(C(=O)OC)cc5C[C@]4(C)C3CC[C@@]21C` (stereo partly specified), more than 50 mg/kg. Turning to `C=C[C@]1(O)CCC2C3CC[C@H]4Cc5oc(C(C)=O)cc5C[C@]4(C)C3CC[C@@]21C` (stereo partly specified), in test [2], the ED50 result was “Agonist”. On to `C#C[C@]1(O)CCC2C3CC[C@H]4Cc5oc(C(=O)C6CC6)cc5C[C@]4(C)C3CC[C@@]21C` (stereo partly specified), for which the ED50 entry in test [2] is “Agonist”. In the case of `CC(C)C(=O)c1cc2c(o1)C[C@@H]1CCC3C4CC[C@H](O)[C@@]4(C)CCC3[C@@]1(C)C2` (stereo partly specified), in test [2], the ED50 entry was “Agonist”. In test [1], `C[C@]12CCC3C(CC[C@H]4Cc5oc(C(=O)C6CC6)cc5C[C@]34C)C1CC[C@@H]2O` (stereo partly specified) displayed a median effective dose (ED50) of 100 mg/kg.

As to `C[C@]12CCC3C(CC[C@H]4Cc5oc(C(=O)C(F)(F)F)cc5C[C@]34C)C1CC[C@@H]2O` (stereo partly specified), the ED50 entry in test [2] is “Agonist”. The compound `C[C@]12CCC3C(CC[C@H]4Cc5occc5C[C@]34C)C1CC[C@@H]2O` (stereo partly specified) displayed an ED50 in test [1] of more than 100 mg/kg. On the same count and under the same terms, then `C[C@]12CCC3C(CC[C@H]4Cc5oc(C=O)cc5C[C@]34C)C1CC[C@@H]2O` (stereo partly specified), with more than 100 mg/kg. As to `C#C[C@]1(O)CCC2C3CC[C@H]4Cc5oc(C(=O)C(C)C)cc5C[C@]4(C)C3CC[C@@]21C` (stereo partly specified), the ED50 result in test [2] is “Agonist”. `CC(C)(C)C(=O)c1cc2c(o1)C[C@@H]1CCC3C4CC[C@H](O)[C@@]4(C)CCC3[C@@]1(C)C2` (stereo partly specified) showed an ED50 in test [1] of more than 100 mg/kg. For `CC(=O)c1cc2cc3c(cc2o1)CC[C@@H]1[C@@H]3CC[C@]2(C)[C@@H](O)CC[C@@H]12`, in test [1], the 50% effect level (ED50) was put at a dose of 100 mg/kg.

With `C#C[C@]1(O)CCC2C3CC[C@H]4Cc5oc(C(=O)C(Cl)(Cl)Cl)cc5C[C@]4(C)C3CC[C@@]21C` (stereo partly specified), in test [2], the ED50 entry was “Agonist”. Turning to `CCC(=O)c1cc2c(o1)C[C@@H]1CCC3C4CC[C@H](O)[C@@]4(C)CCC3[C@@]1(C)C2` (stereo partly specified), the 50% effect level in test [1] (ED50) was put at a dose of 33 mg/kg. Turning to `CC(=O)c1cc2c(o1)C[C@@H]1CCC3C4CC[C@H](O)[C@@]4(C)CCC3[C@@]1(C)C2` (stereo partly specified), the ED50 result in test [2] is “Agonist”. Compound `C#C[C@]1(O)CCC2C3CC[C@H]4Cc5oc(C(N)=O)cc5C[C@]4(C)C3CC[C@@]21C` (stereo partly specified) yielded an ED50 in test [1] of 56 mg/kg. Same read-out and setting: as for `C#C[C@]1(O)CCC2C3CC[C@H]4Cc5oc(C=O)cc5C[C@]4(C)C3CC[C@@]21C` (stereo partly specified), the figure is 100 mg/kg; as for `CCCC(=O)c1cc2c(o1)C[C@@H]1CCC3C4CC[C@H](O)[C@@]4(C)CCC3[C@@]1(C)C2` (stereo partly specified), more than 75 mg/kg; as for `C[C@]12CCC3C(CC[C@H]4Cc5oc(C=O)cc5C[C@H]34)C1CC[C@@H]2O` (stereo partly specified), more than 100 mg/kg.

The values above are taken from ChEMBL document CHEMBL1127426, “Androgen receptor affinity of 5'-acyl furanosteroids” (1994).
